According to publication PMC4666646, “The Structure of the RNA-Dependent RNA Polymerase of a Permutotetravirus Suggests a Link between Primer-Dependent and Primer-Independent Polymerases” (PLoS Pathogens, 2015):

What was measured:
TaVpol (TaV RdRP domain) [1] = biological target: T1, TaVpol (TaV RdRP domain) (Thosea asigna virus, UniProt Q6A562); conditions: MnCl2, ssRNA template 5'-[…]; active site of molecule B, base stacked on Y611 and F613 of loop λ6
TaVpol (TaV RdRP domain) [2] = biological target: T1, TaVpol (TaV RdRP domain); assay: X-ray crystal structure, […] Å; format: binding; parameters: RdRP domain, first 674 residues of replicase ORF1 (1257 residues), 75 kDa fragment released by proteolysis in Hi5 insect cells; N-terminal 6xHis tag and TEV site, tag cut for biochemical assays; dimer; conditions: MgCl2; triphosphate in rNTP tunnel (nucleoside disordered); second site in thumb subdomain (M556, T560, D563, E601)
TaVpol (TaV RdRP domain) [3] = biological target: T1, TaVpol (TaV RdRP domain); assay: X-ray crystal structure, […] Å; format: binding; parameters: RdRP domain, first 674 residues of replicase ORF1 (1257 residues), 75 kDa fragment released by proteolysis in Hi5 insect cells; N-terminal 6xHis tag and TEV site, tag cut for biochemical assays; dimer; conditions: MgCl2; triphosphate in rNTP tunnel (nucleoside disordered); second site in thumb subdomain (M556, T560, D563, E601); remark: listed apart in the source
[4] = biological target: TaVpol (RdRP domain of Thosea asigna virus ORF1, first 674 residues) (Thosea asigna virus); assay: SEC; analytic chromatography on a calibrated Superdex 200 5/150 column of purified proteins; for TaVpol also the final purification step on Superdex 200 HR 10/300 (50 mM MES pH 6.0, 500 mM NaCl, 10% glycerol, 5 mM DTT)
[5] = biological target: T2, TaVpol (RdRP-containing N-terminal fragment of ORF1) (Thosea asigna virus, UniProt Q6A562 1-674); assay: X-ray crystallography; Complex formation: 1 mg/ml TaVpol, 1:1.5 protein:RNA, 50 mM MES pH 6.0, 200 mM NaCl, 10% glycerol, 5 mM DTT, 30 C 30 min; crystals at 20 C in 12% PEG 8K, 750 mM Li2SO4; conditions: protein: recombinant; tags: N-terminal 6xHis with TEV site (tag not removed for RNA complexes as far as stated); chain copies: 2; single strand
[6] = biological target: T2, TaVpol (RdRP-containing N-terminal …); assay: X-ray crystallography; ATP, CTP, 5 mM MnCl2; 3.5 A; RNA density weak, only phosphate peaks in template channel, RNA not built; Complex formation: 1 mg/ml TaVpol, 1:1.5 protein:RNA, 50 mM MES pH 6.0, 200 mM NaCl, 10% glycerol, 5 mM DTT, 30 C 30 min; crystals at 20 C in 12% PEG 8K, 750 mM Li2SO4; conditions: protein: recombinant; tags: N-terminal 6xHis with TEV site (tag not removed for RNA complexes as far as stated); chain copies: 2; single strand

`Nc1ncnc2c1ncn2[C@@H]1O[C@H](COP(=O)(O)OP(=O)(O)OP(=O)(O)O)[C@@H](O)[C@H]1O` [ATP] was tested, and the “X-ray crystal structure, 3.5 Å” value (TaVpol (TaV RdRP domain) [1]) was “This density, was interpreted as the presence of a bound ATP molecule”.

`Nc1ccn([C@@H]2O[C@H](COP(=O)(O)OP(=O)(O)OP(=O)(O)O)[C@@H](O)[C@H]2O)c(=O)n1` [CTP] was tested, and the “X-ray crystal structure, 2.25 Å” value (TaVpol (TaV RdRP domain) [2]) was “TaVpol-GTP and TaVpol-CTP co-crystals were also obtained in presence of MgCl2”.

In the case of `Nc1nc2c(ncn2[C@@H]2O[C@H](COP(=O)(O)OP(=O)(O)OP(=O)(O)O)[C@@H](O)[C@H]2O)c(=O)[nH]1` [GTP], the “X-ray crystal structure, 2.3 Å” value (TaVpol (TaV RdRP domain) [3]) is reported as “TaVpol-GTP and TaVpol-CTP co-crystals were also obtained in presence of MgCl2”.

“TaVpol (RdRP domain of Thosea asigna virus ORF1, first 674 residues) (domain or fragment)” was tested, and the stoichiometry N [4] was 2.

GUAUACUACACCCAUUCGACUCCUG (ssRNA) [25-nt ssRNA template]: binds [5].

CCCAUUCGACUCCUG (ssRNA) [15-nt ssRNA template]: binds [6].
